Data set [1] deals with Akt. Description: Phosphorylation of Akt (PI3K activity marker, Fyn-dependent cascade). The data set is classed as cell-based. The settings on record: RBL-2H3 cells and BMMCs. The protocol:
In mast cells, the signalling cascade Fyn/Gab2/PI3K gives rise to the activation of PI3K and the generation of PI-3,4,5-P3 recruiting a number of proteins containing a pleckstrin homology domain (PH), including Btk and PLC-γ on the plasma membrane^19.
• 1) Chemical products and antibodies. A chemical bank of 3000 molecules (a varied subset) was acquired from ChemBridge, Inc. (San Diego, Calif.). Stocks of solutions of small molecules were prepared at a rate of 10 mM in DMSO (dimethylsulphoxide), except for C-13 (methyl 2-{5-[(3-benzyl-4-oxo-2-thioxo-1,3-thiazolidin-5-ylidene)methyl]-2-furyl}benzoate, ChemBridge ID No. 6197026) prepared in DMF (dimethylformamide). Unless specified otherwise, all the reagents were supplied by Sigma. […] The binding of G4G11 with Syk was assessed by adding the 9E10 monoclonal antibody conjugated with HRP detecting the amino acid sequence EQKLISEEDLN of human c-myc protein located at the C-terminal end of the scFv fragment. To generate Syk mutants, targeted mutagenesis was used on GST:Syk 6-242 protein and the binding of G4G11 with the mutants was assessed in the presence of 5 μM of C-13. • 3) Cells, culture conditions and functional tests. […] The level of β-hexosaminidase released was measured 10 min later and the TNF-α titration was performed by means of a cytotoxicity test on L929 cells as described previously^10, 3 hours after stimulation. […]

In data set [2] the target is T1, Syk (Rattus norvegicus, UniProt Q64725).
T1 construct: endogenous in cells; host or cells: RBL-2H3
In words: Phosphorylation and FcεRI-induced kinase activity of Syk in RBL-2H3 cells. The format is cell-based.

A short description of data set [3]: Observation of toxicity after administration to animals. The format is in vivo, BALB/c mice. From the text: The pharmaceutical molecule screening approach described herein represents a generic platform wherein the initial use of antibodies makes it possible to detect the domains of the target molecule having a therapeutic potential, thus facilitating the design of chemical molecules (via in silico and/or in vitro screening) capable acting as functional antibody mimics and as potential protein-protein interaction inhibitors.
Finally, to extend these observations to mast cell functions in vivo, the inventors tested the effects of C-13 on passive systemic (PSA) and cutaneous anaphylaxis (PCA) induced in BALB/c mice by administering DNP-specific IgE molecules followed by intravenous stimulation with DNP-KLH hapten. […] The intensity of systemic anaphylaxis was determined by measuring both the drop in body temperature and the increase in vascular permeability following antigen administration.

Structures are written as SMILES.

T1 sequence (Q64725 whole entry): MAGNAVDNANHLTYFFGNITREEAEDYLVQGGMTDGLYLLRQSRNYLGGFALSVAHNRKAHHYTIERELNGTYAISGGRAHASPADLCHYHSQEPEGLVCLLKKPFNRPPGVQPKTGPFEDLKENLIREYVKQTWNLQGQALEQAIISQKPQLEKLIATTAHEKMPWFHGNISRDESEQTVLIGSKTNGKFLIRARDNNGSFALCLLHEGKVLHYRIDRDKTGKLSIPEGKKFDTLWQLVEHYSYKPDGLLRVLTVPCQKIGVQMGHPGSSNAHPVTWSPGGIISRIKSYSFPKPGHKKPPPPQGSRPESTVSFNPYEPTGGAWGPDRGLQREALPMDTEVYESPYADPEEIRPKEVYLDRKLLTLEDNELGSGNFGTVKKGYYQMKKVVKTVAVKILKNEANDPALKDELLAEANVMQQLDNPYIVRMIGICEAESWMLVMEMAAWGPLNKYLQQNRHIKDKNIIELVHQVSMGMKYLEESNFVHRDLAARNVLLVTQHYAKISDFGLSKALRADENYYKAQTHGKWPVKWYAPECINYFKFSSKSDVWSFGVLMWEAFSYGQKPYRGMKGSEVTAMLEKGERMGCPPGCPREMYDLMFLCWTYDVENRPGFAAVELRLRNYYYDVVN

Take `COC(=O)c1ccccc1-c1ccc(/C=C2/SC(=S)N(Cc3ccccc3)C2=O)o1` [Molecule C-13, methyl 2-{5-[(3-benzyl-4-oxo-2-thioxo-1,3-thiazolidin-5-ylidene)methyl]-2-furyl}benzoate]: the “Fyn-dependent cascade (phosphorylation of Akt)” value in data set [1] is listed as “did not affect”. In data set [2], the “phosphorylation and FcεRI-induced kinase activity of Syk” value is recorded as “did not affect”. In data set [3] (after oral administration, prior to antigen stimulation), the “signs of toxicity in the animals” value is “no obvious sign of toxicity”. Also, the apparent toxic effect result in data set [3] (oral or local administration, one hour to 12 days) is reported as “lack of an apparent toxic effect”.

The values above are taken from patent US9504676B2, “Molecules inhibiting a metabolic pathway involving the Syk protein tyrosine kinase and method for identifying said molecules” (CENTRE NATIONAL DE LA RECHERCHE SCIENTIFIQUE, priority 2008, dated 2016).
